Source: ChEMBL document CHEMBL1136657, “Novel ether derivatives of mannopeptimycin glycopeptide antibiotic” (2003)
In brackets after ≈: the same amount, converted by molar mass.

Legend:
[1] = Minimum inhibitory concentration against SCN (GC 4549) was determined; format: functional
Morganella morganii = assay: Minimum inhibitory concentration against Morganella morganii (GC 4381) was determined; format: functional
Enterococcus faecalis [2] = assay: microbe, parasite or virus in culture
Mus musculus = assay: In vivo activity against Staphylococcus aureus smith was determined after iv administration in mice; format: functional
Streptococcus pneumoniae [3] = assay: Minimum inhibitory concentration against Streptococcus pneumoniae (GC 6242) was determined; format: functional
[4] = Minimum inhibitory concentration against SCN (GC 6257) was determined; format: functional
Enterococcus avium = assay: Minimum inhibitory concentration against Enterococcus avium (GC 4558) was determined; format: functional
Micrococcus luteus = assay: Minimum inhibitory concentration against Sarcina lutea (GC 4562) was determined; format: functional
Streptococcus [5] = assay: Minimum inhibitory concentration against Streptococcus was determined; Range is <=0.12-0.5 ug/mL; format: functional
Enterococcus faecalis [6] = assay: Minimum inhibitory concentration against Enterococcus faecalis (GC 4552) was determined; format: functional
[7] = Minimum inhibitory concentration against SCN (GC 4551) was determined; format: functional
Escherichia coli [8] = assay: Minimum inhibitory concentration against Escherichia coli (GC 4560) was determined; format: functional
Enterococcus faecalis [9] = assay: Minimum inhibitory concentration against Enterococcus faecalis (GC 4554) was determined; format: functional
Candida albicans [10] = assay: Minimum inhibitory concentration against Candida albicans was determined; format: functional
Enterococcus faecalis [11] = assay: Minimum inhibitory concentration against Enterococcus faecalis (GC 4555) was determined; format: functional
Enterococcus faecalis [12] = assay: Minimum inhibitory concentration against Enterococcus faecalis (GC 3059) was determined; format: functional
Enterococcus faecalis [13] = assay: Minimum inhibitory concentration against Enterococcus faecalis (GC 2691) was determined; format: functional
[14] = Minimum inhibitory concentration against Gram(-) sp. was determined; format: functional
Enterococcus faecalis [15] = assay: Minimum inhibitory concentration against Enterococcus faecalis (GC 6189) was determined; format: functional
Streptococcus agalactiae = assay: Minimum inhibitory concentration against Streptococcus agalactiae (GC4564) was determined; format: functional
Enterococcus faecalis [16] = assay: Minimum inhibitory concentration against Enterococcus faecalis (GC 4553) was determined; format: functional
Streptococcus pyogenes = assay: Minimum inhibitory concentration against Streptococcus pyogenes (GC 4563) was determined; format: functional
Candida albicans [17] = assay: Minimum inhibitory concentration against Candida albicans GC 3066 was determined; format: functional
Enterococcus faecalis [18] = assay: Minimum inhibitory concentration against Enterococcus faecalis (GC 2242) was determined; format: functional
[19] = Minimum inhibitory concentration against SCN (GC 4548) was determined; format: functional
Escherichia coli [20] = assay: Minimum inhibitory concentration against Escherichia coli (GC 2203) was determined; format: functional
Pseudomonas aeruginosa = assay: Minimum inhibitory concentration against Pseudomonas aeruginosa (GC 2214) control was determined; format: functional
Escherichia coli [21] = assay: Minimum inhibitory concentration against Escherichia coli (GC 4564) was determined; format: functional
[22] = Minimum inhibitory concentration against SCN (GC 4547) was determined; format: functional
Streptococcus pneumoniae [23] = assay: Minimum inhibitory concentration against Streptococcus pneumoniae (GC 1894) was determined; format: functional
Streptococcus pneumoniae [24] = assay: Minimum inhibitory concentration against Streptococcus pneumoniae (GC 4565) was determined; format: functional
Enterococcus faecium [25] = assay: Minimum inhibitory concentration against Enterococcus faecium (GC 2243) was determined; format: functional
[26] = tested on: Staphylococcus haemolyticus; assay: Minimum inhibitory concentration against Staphylococcus haemolyticus (GC 4546) was determined
Enterococcus faecalis [27] = assay: Minimum inhibitory concentration against Enterococcus faecalis was determined; Range is 8-16 ug/mL; format: functional
Staphylococcus aureus [28] = assay: Minimum inhibitory concentration against Staphylococcus aureus (MSSA) was determined; Range is 4-8 ug/mL; format: functional
Staphylococcus aureus [29] = assay: Minimum inhibitory concentration against Staphylococcus aureus (MSCNS) was determined; Range is 1-8 ug/mL; format: functional
Enterococcus faecium [30] = assay: Minimum inhibitory concentration against Enterococcus faecium was determined; Range is 8-16 ug/mL; format: functional
Staphylococcus aureus [31] = assay: Minimum inhibitory concentration against Staphylococcus aureus (MRSA) was determined; Range is 4-8 ug/mL; format: functional
Staphylococcus aureus [32] = assay: Minimum inhibitory concentration against Staphylococcus aureus (MRCNS) was determined; format: functional
Streptococcus [33] = assay: Minimum inhibitory concentration against Streptococcus was determined; Range is <=0.12-2 ug/mL; format: functional
Enterococcus sp. = assay: Minimum inhibitory concentration against Enterococcus species. was determined; format: functional
Streptococcus [34] = assay: Minimum inhibitory concentration against Streptococcus species. was determined; format: functional
Staphylococcus aureus [35] = assay: Minimum inhibitory concentration against Staphylococcus aureus was determined; format: functional

Compound: CN[C@H](CC(C)C)C(=O)N[C@H]1C(=O)N[C@@H](CC(N)=O)C(=O)N[C@H]2C(=O)N[C@H]3C(=O)N[C@H](C(=O)N[C@H](C(=O)O)c4cc(O)cc(O)c4-c4cc3ccc4O)[C@H](O)c3ccc(c(Cl)c3)Oc3cc2cc(c3O[C@@H]2O[C@H](CO)[C@@H](O)[C@H](O)[C@H]2O[C@H]2C[C@](C)(N)[C@H](O)[C@H](C)O2)Oc2ccc(cc2Cl)[C@H]1O [VANCOMYCIN]
- MIC [1]: 0.5 µg/mL (≈ 0.345 µM)
- MIC (Morganella morganii): > 64 µg/mL
- MIC (Enterococcus faecalis [2]): 0.5 µg/mL (≈ 0.345 µM)
- ED50 (Mus musculus): 1 mg/kg
- ED50 (Mus musculus; Mus musculus, iv, read-out: ED50): 0.5 mg/kg
- MIC (Streptococcus pneumoniae [3]): 0.5 µg/mL (≈ 0.345 µM)
- MIC [4]: 0.5 µg/mL (≈ 0.345 µM)
- MIC (Enterococcus avium): > 64 µg/mL
- MIC (Micrococcus luteus): 1 µg/mL (≈ 0.69 µM)
- MIC (Streptococcus [5]): ≤ 0.12 µg/mL
- MIC (Enterococcus faecalis [6]): 1 µg/mL (≈ 0.69 µM)
- MIC [7]: 2 µg/mL (≈ 1.38 µM)
- MIC (Escherichia coli [8]): 0.5 µg/mL (≈ 0.345 µM)
- MIC (Enterococcus faecalis [9]): 0.5 µg/mL (≈ 0.345 µM)
- MIC (Candida albicans [10]): > 128 µg/mL
- MIC (Enterococcus faecalis [11]): 2 µg/mL (≈ 1.38 µM)
- MIC (Enterococcus faecalis [12]): > 64 µg/mL
- MIC (Enterococcus faecalis [13]): 1 µg/mL (≈ 0.69 µM)
- MIC [14]: > 128 µg/mL
- MIC (Enterococcus faecalis [15]): > 64 µg/mL
- MIC (Streptococcus agalactiae): 0.5 µg/mL (≈ 0.345 µM)
- MIC (Enterococcus faecalis [16]): 0.5 µg/mL (≈ 0.345 µM)
- MIC (Streptococcus pyogenes): 0.25 µg/mL (≈ 0.173 µM)
- MIC (Candida albicans [17]): > 64 µg/mL
- MIC (Enterococcus faecalis [18]): > 64 µg/mL
- MIC [19]: 2 µg/mL (≈ 1.38 µM)
- MIC (Escherichia coli [20]): > 64 µg/mL
- MIC (Pseudomonas aeruginosa): > 64 µg/mL
- MIC (Escherichia coli [21]): > 64 µg/mL
- MIC [22]: 2 µg/mL (≈ 1.38 µM)
- MIC (Streptococcus pneumoniae [23]): 0.12 µg/mL (≈ 0.0828 µM)
- MIC (Streptococcus pneumoniae [24]): 0.25 µg/mL (≈ 0.173 µM)
- MIC (Enterococcus faecium [25]): > 64 µg/mL
- MIC [26]: 1 µg/mL (≈ 0.69 µM)

Compound: C[C@@H](c1ccccc1)[C@@H]1NC(=O)CNC(=O)[C@H](CO)NC(=O)[C@@H]([C@@H](O)[C@@H]2CN=C(N)N2[C@H]2O[C@H](O)[C@@H](O)[C@H](O)[C@@H]2O)NC(=O)[C@H]([C@@H](O)[C@@H]2CN=C(N)N2)NC(=O)[C@@H](Cc2ccc(O[C@H]3O[C@H](CO)[C@@H](O[C@H]4O[C@H](CO)[C@@H](O)[C@H](OCc5ccc(OCc6ccccc6)cc5)[C@@H]4O)[C@H](O)[C@@H]3O)cc2)NC1=O
- MIC (Enterococcus faecalis [27]): 8 µg/mL (≈ 5.41 µM)
- MIC (Staphylococcus aureus [28]): 4 µg/mL (≈ 2.71 µM)
- MIC (Staphylococcus aureus [29]): 1 µg/mL (≈ 0.677 µM)
- MIC (Candida albicans [10]): > 128 µg/mL
- MIC (Enterococcus faecium [30]): 8 µg/mL (≈ 5.41 µM)
- MIC (Staphylococcus aureus [31]): 4 µg/mL (≈ 2.71 µM)
- MIC [14]: > 128 µg/mL
- MIC (Staphylococcus aureus [32]): 4 µg/mL (≈ 2.71 µM)
- MIC (Streptococcus [33]): ≤ 0.12 µg/mL

Compound: CC(C)CC(=O)O[C@@H]1[C@@H](O[C@H]2[C@H](O)[C@H](O)[C@@H](Oc3ccc(C[C@H]4NC(=O)[C@H]([C@@H](C)c5ccccc5)NC(=O)CNC(=O)[C@H](CO)NC(=O)[C@@H]([C@@H](O)[C@@H]5CN=C(N)N5[C@H]5O[C@H](O)[C@@H](O)[C@H](O)[C@@H]5O)NC(=O)[C@H]([C@@H](O)[C@@H]5CN=C(N)N5)NC4=O)cc3)O[C@@H]2CO)O[C@H](CO)[C@@H](O)[C@@H]1O
- MIC (Enterococcus sp.): > 128 µg/mL
- MIC (Streptococcus [34]): 8 µg/mL (≈ 5.86 µM)
- MIC (Staphylococcus aureus [35]): 8 µg/mL (≈ 5.86 µM)
